Assay: xn = mol fraction of the nth substance listed
Conditions: for surface tension liquid-gas: Maximal bubble pressure; for mass density: 100 kPa, Liquid, Vibrating tube method

COCC[n+]1ccn(C)c1.O=S(=O)([N-]S(=O)(=O)C(F)(F)F)C(F)(F)F + CCO
Conditions | mass density [kg/m3] | surface tension liquid-gas [mN/m]
288.15 K, x1 = 0.1003 | 1055.22 | 24.8
288.15 K, x1 = 0.2 | 1197.64 | 25.9
288.15 K, x1 = 0.2972 | 1285.52 | 27.5
288.15 K, x1 = 0.401 | 1350.45 | 29.3
288.15 K, x1 = 0.5028 | 1396.83 | 31.5
288.15 K, x1 = 0.5982 | 1430.26 | 33.8
288.15 K, x1 = 0.6973 | 1457.78 | 35.8
288.15 K, x1 = 0.8111 | 1483.2 | 38.2
288.15 K, x1 = 0.8991 | 1499.41 | 39.7
288.15 K, x1 = 1 | 1515.3 | 41.4
293.15 K, x1 = 0.1003 | 1050.42 | 24.4
293.15 K, x1 = 0.2 | 1192.63 | 25.5
293.15 K, x1 = 0.2972 | 1280.42 | 27.1
293.15 K, x1 = 0.401 | 1345.31 | 29
293.15 K, x1 = 0.5028 | 1391.67 | 31.3
293.15 K, x1 = 0.5982 | 1425.1 | 33.5
293.15 K, x1 = 0.6973 | 1452.62 | 35.5
293.15 K, x1 = 0.8111 | 1478.06 | 38
293.15 K, x1 = 0.8991 | 1494.28 | 39.5
293.15 K, x1 = 1 | 1510.15 | 41.2
298.15 K, x1 = 0.1003 | 1045.8 | 23.9
298.15 K, x1 = 0.2 | 1187.81 | 25
298.15 K, x1 = 0.2972 | 1275.51 | 26.8
298.15 K, x1 = 0.401 | 1340.28 | 28.7
298.15 K, x1 = 0.5028 | 1386.61 | 31
298.15 K, x1 = 0.5982 | 1420.05 | 33.2
298.15 K, x1 = 0.6973 | 1447.54 | 35.3
298.15 K, x1 = 0.8111 | 1472.95 | 37.7
298.15 K, x1 = 0.8991 | 1489.16 | 39.2
298.15 K, x1 = 1 | 1505.03 | 41
303.15 K, x1 = 0.1003 | 1040.76 | 23.5
303.15 K, x1 = 0.2 | 1182.58 | 24.7
303.15 K, x1 = 0.2972 | 1270.2 | 26.5
303.15 K, x1 = 0.401 | 1335.02 | 28.4
303.15 K, x1 = 0.5028 | 1381.37 | 30.7
303.15 K, x1 = 0.5982 | 1414.81 | 33
303.15 K, x1 = 0.6973 | 1442.35 | 35
303.15 K, x1 = 0.8111 | 1467.8 | 37.5
303.15 K, x1 = 0.8991 | 1484.03 | 39
303.15 K, x1 = 1 | 1499.92 | 40.7
308.15 K, x1 = 0.1003 | 1035.9 | 23.1
308.15 K, x1 = 0.2 | 1177.54 | 24.4
308.15 K, x1 = 0.2972 | 1265.09 | 26.2
308.15 K, x1 = 0.401 | 1329.88 | 28.1
308.15 K, x1 = 0.5028 | 1376.24 | 30.4
308.15 K, x1 = 0.5982 | 1409.68 | 32.7
308.15 K, x1 = 0.6973 | 1437.23 | 34.8
308.15 K, x1 = 0.8111 | 1462.7 | 37.2
308.15 K, x1 = 0.8991 | 1478.94 | 38.8
308.15 K, x1 = 1 | 1494.83 | 40.5
313.15 K, x1 = 0.1003 | 1031.02 | 22.6
313.15 K, x1 = 0.2 | 1172.49 | 24
313.15 K, x1 = 0.2972 | 1259.99 | 25.8
313.15 K, x1 = 0.401 | 1324.76 | 27.8
313.15 K, x1 = 0.5028 | 1371.12 | 30.1
313.15 K, x1 = 0.5982 | 1404.57 | 32.5
313.15 K, x1 = 0.6973 | 1432.14 | 34.5
313.15 K, x1 = 0.8111 | 1457.62 | 37
313.15 K, x1 = 0.8991 | 1473.87 | 38.6
313.15 K, x1 = 1 | 1489.77 | 40.3
318.15 K, x1 = 0.1003 | 1026.12 | 22.3
318.15 K, x1 = 0.2 | 1167.43 | 23.7
318.15 K, x1 = 0.2972 | 1254.88 | 25.5
318.15 K, x1 = 0.401 | 1319.64 | 27.5
318.15 K, x1 = 0.5028 | 1366.01 | 29.9
318.15 K, x1 = 0.5982 | 1399.48 | 32.2
318.15 K, x1 = 0.6973 | 1427.07 | 34.3
318.15 K, x1 = 0.8111 | 1452.56 | 36.8
318.15 K, x1 = 0.8991 | 1468.81 | 38.3
318.15 K, x1 = 1 | 1484.72 | 40.1

COCC[n+]1ccn(C)c1.O=S(=O)([N-]S(=O)(=O)C(F)(F)F)C(F)(F)F + CO
Conditions | mass density [kg/m3] | surface tension liquid-gas [mN/m]
288.15 K, x1 = 0.1004 | 1121.11 | 26.6
288.15 K, x1 = 0.2003 | 1263.18 | 28.5
288.15 K, x1 = 0.2814 | 1330.61 | 29.6
288.15 K, x1 = 0.4004 | 1394.19 | 31.5
288.15 K, x1 = 0.4987 | 1429.08 | 33.1
288.15 K, x1 = 0.5949 | 1454.46 | 34.8
288.15 K, x1 = 0.704 | 1476.43 | 36.9
288.15 K, x1 = 0.8042 | 1492.31 | 38.6
288.15 K, x1 = 0.9003 | 1504.71 | 40.1
288.15 K, x1 = 1 | 1515.3 | 41.4
293.15 K, x1 = 0.1004 | 1116 | 26.2
293.15 K, x1 = 0.2003 | 1257.97 | 28.1
293.15 K, x1 = 0.2814 | 1325.38 | 29.3
293.15 K, x1 = 0.4004 | 1388.96 | 31.1
293.15 K, x1 = 0.4987 | 1423.86 | 32.8
293.15 K, x1 = 0.5949 | 1449.25 | 34.5
293.15 K, x1 = 0.704 | 1471.24 | 36.6
293.15 K, x1 = 0.8042 | 1487.14 | 38.3
293.15 K, x1 = 0.9003 | 1499.56 | 39.8
293.15 K, x1 = 1 | 1510.15 | 41.2
298.15 K, x1 = 0.1004 | 1110.88 | 25.7
298.15 K, x1 = 0.2003 | 1252.76 | 27.7
298.15 K, x1 = 0.2814 | 1320.14 | 28.9
298.15 K, x1 = 0.4004 | 1383.74 | 30.8
298.15 K, x1 = 0.4987 | 1418.64 | 32.5
298.15 K, x1 = 0.5949 | 1444.06 | 34.2
298.15 K, x1 = 0.704 | 1466.08 | 36.4
298.15 K, x1 = 0.8042 | 1481.99 | 38.1
298.15 K, x1 = 0.9003 | 1494.42 | 39.6
298.15 K, x1 = 1 | 1505.03 | 41
303.15 K, x1 = 0.1004 | 1105.74 | 25.2
303.15 K, x1 = 0.2003 | 1247.54 | 27.3
303.15 K, x1 = 0.2814 | 1314.92 | 28.6
303.15 K, x1 = 0.4004 | 1378.52 | 30.5
303.15 K, x1 = 0.4987 | 1413.44 | 32.2
303.15 K, x1 = 0.5949 | 1438.88 | 34
303.15 K, x1 = 0.704 | 1460.92 | 36.1
303.15 K, x1 = 0.8042 | 1476.85 | 37.8
303.15 K, x1 = 0.9003 | 1489.3 | 39.4
303.15 K, x1 = 1 | 1499.92 | 40.7
308.15 K, x1 = 0.1004 | 1100.6 | 24.6
308.15 K, x1 = 0.2003 | 1242.33 | 26.9
308.15 K, x1 = 0.2814 | 1309.69 | 28.2
308.15 K, x1 = 0.4004 | 1373.31 | 30.1
308.15 K, x1 = 0.4987 | 1408.26 | 31.9
308.15 K, x1 = 0.5949 | 1433.72 | 33.7
308.15 K, x1 = 0.704 | 1455.77 | 35.8
308.15 K, x1 = 0.8042 | 1471.73 | 37.6
308.15 K, x1 = 0.9003 | 1484.2 | 39.1
308.15 K, x1 = 1 | 1494.83 | 40.5
313.15 K, x1 = 0.1004 | 1095.44 | 24.2
313.15 K, x1 = 0.2003 | 1237.11 | 26.5
313.15 K, x1 = 0.2814 | 1304.47 | 27.8
313.15 K, x1 = 0.4004 | 1368.12 | 29.9
313.15 K, x1 = 0.4987 | 1403.08 | 31.6
313.15 K, x1 = 0.5949 | 1428.57 | 33.4
313.15 K, x1 = 0.704 | 1450.64 | 35.6
313.15 K, x1 = 0.8042 | 1466.63 | 37.4
313.15 K, x1 = 0.9003 | 1479.12 | 38.9
313.15 K, x1 = 1 | 1489.77 | 40.3
318.15 K, x1 = 0.1004 | 1090.28 | 23.8
318.15 K, x1 = 0.2003 | 1231.89 | 26.1
318.15 K, x1 = 0.2814 | 1299.25 | 27.5
318.15 K, x1 = 0.4004 | 1362.93 | 29.6
318.15 K, x1 = 0.4987 | 1397.92 | 31.4
318.15 K, x1 = 0.5949 | 1423.44 | 33.2
318.15 K, x1 = 0.704 | 1445.47 | 35.4
318.15 K, x1 = 0.8042 | 1461.52 | 37.1
318.15 K, x1 = 0.9003 | 1474.06 | 38.7
318.15 K, x1 = 1 | 1484.72 | 40.1
